Reference: patent US20220218757A1, “THERAPEUTICALLY ACTIVE CELLS AND EXOSOMES” (Cedars-Sinai Medical Center, priority 2019, published 2022)

Assays:
[1] = tested on: SCID/beige mice with acute myocardial infarction; test: Mouse acute MI model (echocardiography, Masson's trichrome histology, mortality); assay type: in vivo; conditions: for myocardial function in mice with MI, drugs given independent of CDCs: relative to controls
Method: Acute myocardial infarction was induced in three-month-old male severe combined immunodeficient (SCID)/beige mice (n=5-7 animals per group). Within 10 min of coronary ligation, 1×10^5 cells, EVs, drugs (or vehicle) were injected intramyocardially.
Echocardiography. Echocardiography study was performed in the SCID/beige at 24 hr (baseline) and three weeks after surgery using Vevo 3100 or 770 Imaging System (Visual Sonics) as described. The average of the left ventricular ejection fraction was analyzed from multiple left ventricular end-diastolic and left ventricular end-systolic measurements.
Animals were sacrificed 3 weeks after MI induction. Hearts were harvested and a transverse cut was made slightly above the MI suture. The apical portion was then embedded in optimum cutting temperature solution in a base mold/embedding ring block (Tissue Tek). Blocks were immediately frozen by submersion in cold 2-methylbutane. Hearts were sectioned at a thickness of 5 μm.
Two slides containing a total of four sections per heart were stained using Masson's trichrome stain. In brief, sections were treated overnight in Bouin's solution. Slides were then rinsed for 10 min under running water and stained with Weigert's hematoxylin for 5 min. Slides were then rinsed and stained with scarlet-acid fuchsin for 5 min and rinsed again. Slides were then stained with phosphotungstic/phosphomolybdic, aniline blue, and 2% acetic acid for 5 min each. Slides were then rinsed, dried, and mounted using DPX mounting media.

immortalized CDCs = assay type: cell-based, Human
Method: (§1) Cells were exposed to 5 μM of 6-bromoindirubin-3′-oxime (BIO, Sigma-Aldrich) or 4-Benzyl-2-(naphthalene-1-yl)-[1,2,4]thiadiazolidine-3,5-dione (Tideglusib, Sigma-Aldrich) for 48 or 72 hours in complete media.

CDCs [2] = test: Flow cytometry of CD90, CD105, DDR2 and LRP5/6; assay type: cell-based, Human
Method: as §1
Cells were harvested and counted (2×10^5 cells per condition). Cells were washed with 1% bovine serum albumin (BSA) in 1× phosphate-buffered saline (PBS) and stained with the appropriate antibody (BD Pharmingen) for 1 hr at 4° C. Cells were then washed again and resuspended in 1% BSA in 1×PBS. BD Cytofix/Cytoperm™ kit was used for cell permeabilization before staining. Flow analysis was done using a BD FACS Canto™ II instrument.

β-catenin = test: Total β-catenin ELISA of cells; assay type: cell-based, Human; conditions: for duration / decay of effect on β-catenin after GSK3β inhibition: CDCs, BIO (reversible) vs tideglusib (irreversible)
Method: (§2) Cell lysates were collected for ELISA and western blot. For ELISA, 4×10^5 cells were collected and pelleted at 1,000 rpm for 5 min at 4° C. Cell pellets were lysed in 1× lysis buffer (Affymetrix eBioscience InstantOne ELISA kit) and incubated for 10 min at room temperature with regular agitation. For western blot, cells were pelleted and resuspended in 1× RIPA buffer (Alfa Aesar) with protease inhibitor on ice for 30 min. Protein lysates were isolated by centrifugation at 14,000 rpm for 15 min at 4° C. Protein concentration was measured using a DC™ Protein Assay kit (Bio-Rad).
as §1
Total β-catenin ELISA was performed according the protocol described with a final sample concentration of 0.01 mg/ml and positive control of 0.1 mg/ml (Affymetrix eBioscience InstantOne™ ELISA).

EXTL1 = test: Western blot of EXTL1 protein; assay type: cell-based, Human; conditions: CDC (LP) exposure to BIO
Method: as §2

CDC EVs = test: qPCR of miRs in EVs from BIO-exposed versus vehicle-exposed CDCs; assay type: cell-based, Human; conditions: EVs of LP, LPL, imCDC exposed to BIO vs vehicle
Method: Extracellular Vesicles were harvested from primary CDCs at passage 5 or older passages from transduced cells using a hypoxic cycling method used previously. Briefly, cells were grown to confluence at 20% O2/5% CO2 at 37° C., and then cells were serum-free at 2% O2/5% CO2 at 37° C. overnight after one wash. Conditioned media was collected and filtered through 0.45 μm filter to remove apoptotic bodies and cellular debris and frozen for later use at −80° C. EVs were purified using centrifugal ultrafiltration with a 1000 KDa molecular weight cutoff filter (Sartorius). EV preparations were analyzed through Malvern Nanosight NS300 Instrument (Malvern Instruments) with the following acquisition parameters: camera levels of 15, detection level less than or equal to 5, number of videos taken 4, and video length of 30 s.
Cell RNA was isolated using a miRNeasy Mini Kit (Qiagen). Exosome RNA was isolated using the Urine Exosome RNA Isolation Kit (Norgen Biotek Corp.). Reverse transcription was performed using High Capacity RNA to cDNA (Thermo Fisher Scientific) or TaqMan® microRNA Reverse Transcription Kit (Applied Biosystems) for RNA and micro RNA, respectively. […] Samples were processed and analyzed using a QuantStudio™ 12K Flex Real-Time PCR system and each reaction was performed in triplicate samples (with housekeeping genes hprt1 for mRNA and miR23a for microRNA). […]

CDCs [3] = test: RNA sequencing and qPCR of BIO-exposed versus vehicle-exposed CDCs (LP, LPL, imCDC); assay type: cell-based, Human
Method: Cell RNA was isolated using a miRNeasy Mini Kit (Qiagen). Exosome RNA was isolated using the Urine Exosome RNA Isolation Kit (Norgen Biotek Corp.). Reverse transcription was performed using High Capacity RNA to cDNA (Thermo Fisher Scientific) or TaqMan® microRNA Reverse Transcription Kit (Applied Biosystems) for RNA and micro RNA, respectively. Real-time PCR was performed using TaqMan Fast Advanced Master Mix and the appropriate TaqMan® Gene Expression Assay (Thermo Fisher Scientific). Samples were processed and analyzed using a QuantStudio™ 12K Flex Real-Time PCR system and each reaction was performed in triplicate samples (with housekeeping genes hprt1 for mRNA and miR23a for microRNA). The gene expression assays/microRNAs used in this study were as follows (Thermo Fisher Scientific):
Cell and exosome RNA samples were sequenced at the Cedars Sinai Genomics Core. Total RNA and Small RNA were analyzed using an Illumina NextSeq 500 platform for cell and exosome samples respectively.
as §1
To understand how β-catenin drives potency, the transcriptomes of LP CDCs to those of the same cell batches after exposure to BIO were compared. As stated above, three scenarios associated with low potency were identified: donor-related, in which all lots from a given donor lack potency; lot-dependent, in which some lots are potent and others are not; and immortalized CDCs (imCDCs). Using RNA sequencing, LP cells from each scenario were compared after exposure to BIO versus vehicle alone. […] Differential expression of microRNAs (miRs) between the two groups further identified a cognate miR coregulated with mest (miR-335; FIG. 3C, FIGS. 9D and 9E). […] Mest modulates Wnt/β-catenin signaling indirectly through glucosyltransferases that prevent LRP5/6 receptor maturation. […]

| SMILES | myocardial function in mice with MI, drugs given independent of CDCs [1] | potency of immortalized CDCs after exposure to BIO ([1]; imCDC pre-exposed to BIO, then injected) | cell growth and viability (immortalized CDCs) | expression of CD90 (CDCs [2]; BIO-exposed LP cells) | expression of CD105 (CDCs [2]; BIO-exposed LP cells) | expression of DDR2 (CDCs [2]; BIO-exposed LP cells) | LRP5/6 level (flow cytometry) (CDCs [2]; LP CDCs exposed to BIO) | concentration at which BIO is maximally effective in CDCs (β-catenin ELISA) (β-catenin; CDCs exposed to increasing concentrations of BIO) | duration / decay of effect on β-catenin after GSK3β inhibition (β-catenin) | β-catenin levels (β-catenin; LP CDC line exposed to 5 μM BIO vs vehicle) | EXTL1 protein levels (EXTL1) | EV levels of miR-335 (CDC EVs) | miR-335 expression in cells (CDCs [3]; BIO vs vehicle, LP, LPL and imCDC) | downregulation of mest (CDCs [3]; BIO vs vehicle, fold changes pooled over LP, LPL and imCDC) | LRP5/6 transcripts (CDCs [3]; BIO-exposed LP, LPL and imCDCs, qPCR) |
| --- | --- | --- | --- | --- | --- | --- | --- | --- | --- | --- | --- | --- | --- | --- | --- |
| O=C1Nc2ccccc2C12OCC1(CO2)COC2(OC1)C(=O)Nc1ccccc12 (centres unmarked) [JW67] | Neither BIO nor the canonical Wnt inhibitor JW67 significantly altered myocardial function | – | – | – | – | – | – | – | – | – | – | – | – | – | – |
| O=C1Nc2cc(Br)ccc2/C1=C1/Nc2ccccc2/C1=N\O [BIO, 6-bromoindirubin-3′-oxime] | Neither BIO nor the canonical Wnt inhibitor JW67 significantly altered myocardial function | restored potency | cell growth and viability were undermined | decreased the expression of CD90 | without affecting | without affecting | upregulated its glycosylation target LRP5/6 (although that difference was not statistically significant | 5 µM | more rapid decay of effect | increase β-catenin levels | decreased EXTL1 protein levels | decreased significantly | downregulated | ~30 fold | unchanged |
| O=c1sn(-c2cccc3ccccc23)c(=O)n1Cc1ccccc1 [Tideglusib, 4-Benzyl-2-(naphthalene-1-yl)-[1,2,4]thiadiazolidine-3,5-dione] | – | – | – | – | – | – | – | – | directionally similar but longer-lasting effects | – | – | – | – | – | – |
